Laboratory results from PubChem BioAssay (NCI).
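1) Cells in 96-well plates. 2) Compound, 48 h, 5 concentrations. 3) Linear interpolation between surrounding doses. 4) Unreached endpoint = highest concentration. TGI: total growth inhibition.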

Key:
Assay in all cases: NCI-60 cell line screen, 48 h
MDA-MB-231 breast = test system: MDA-MB-231 breast
T-47D breast = test system: T-47D breast
MALME-3M melanoma = test system: MALME-3M melanoma
HCT-15 colon = test system: HCT-15 colon
MOLT-4 leukemia = test system: MOLT-4 leukemia
EKVX NSCLC = test system: EKVX NSCLC
HCT-116 colon = test system: HCT-116 colon
MDA-MB-435 = test system: MDA-MB-435
SW-620 colon = test system: SW-620 colon
K-562 leukemia = test system: K-562 leukemia
OVCAR-5 ovarian = test system: OVCAR-5 ovarian
UO-31 renal = test system: UO-31 renal
SN12C renal = test system: SN12C renal
SK-MEL-28 melanoma = test system: SK-MEL-28 melanoma
RXF 393 renal = test system: RXF 393 renal
OVCAR-3 ovarian = test system: OVCAR-3 ovarian
RPMI-8226 leukemia = test system: RPMI-8226 leukemia
HOP-92 NSCLC = test system: HOP-92 NSCLC
IGROV1 ovarian = test system: IGROV1 ovarian
786-0 renal = test system: 786-0 renal
NCI-H23 lung = test system: NCI-H23 lung
NCI-H460 lung = test system: NCI-H460 lung
COLO 205 colon = test system: COLO 205 colon
TK-10 renal = test system: TK-10 renal
HCC-2998 colon = test system: HCC-2998 colon
HOP-62 NSCLC = test system: HOP-62 NSCLC
SK-MEL-2 melanoma = test system: SK-MEL-2 melanoma
SK-MEL-5 melanoma = test system: SK-MEL-5 melanoma
UACC-257 melanoma = test system: UACC-257 melanoma
OVCAR-4 ovarian = test system: OVCAR-4 ovarian
SNB-19 CNS = test system: SNB-19 CNS
SF-268 CNS = test system: SF-268 CNS
SK-OV-3 ovarian = test system: SK-OV-3 ovarian
A549 NSCLC = test system: A549 NSCLC
CCRF-CEM leukemia = test system: CCRF-CEM leukemia
SNB-75 CNS = test system: SNB-75 CNS
BT-549 breast = test system: BT-549 breast
NCI-H226 lung = test system: NCI-H226 lung
PC-3 prostate = test system: PC-3 prostate
MDA-N = test system: MDA-N
NCI-H522 lung = test system: NCI-H522 lung
A498 renal = test system: A498 renal
ACHN renal = test system: ACHN renal
CAKI-1 renal = test system: CAKI-1 renal
M14 melanoma = test system: M14 melanoma
NCI/ADR-RES ovarian = test system: NCI/ADR-RES ovarian
SF-295 CNS = test system: SF-295 CNS
LOX IMVI melanoma = test system: LOX IMVI melanoma
U251 CNS = test system: U251 CNS
HL-60(TB) leukemia = test system: HL-60(TB) leukemia
UACC-62 melanoma = test system: UACC-62 melanoma
KM12 colon = test system: KM12 colon
MCF7 breast = test system: MCF7 breast
OVCAR-8 ovarian = test system: OVCAR-8 ovarian
DU-145 prostate = test system: DU-145 prostate

Measured: TGI

O=C1CCc2nc3ncccc3cc2C1
82.3 µM: MDA-MB-435
72.8 µM: CCRF-CEM leukemia
97.7 µM: K-562 leukemia
55.4 µM: NCI-H522 lung
not listed: LOX IMVI melanoma | U251 CNS | HL-60(TB) leukemia | UACC-62 melanoma | KM12 colon | MCF7 breast | OVCAR-8 ovarian | DU-145 prostate
> 100 µM: all other assays above

CCOC(=O)CCSS(=O)(=O)C(F)(F)F
not listed: MDA-MB-231 breast | MALME-3M melanoma | MOLT-4 leukemia | K-562 leukemia | SF-268 CNS | NCI-H522 lung
> 100 µM: all other assays above
